Read-outs that look alike come from different tables or passages of the source.
Experiments:
[1] = test system: histamine-induced dyspnea; test: Bronchodilator (in vivo) Guinea Pig Dyspnea; details: oral, one hour before histamine challenge
Description: Unanesthetized guinea pigs (250-350 g), fasted overnight were placed in individual closed aerosol chambers which were connected to a Monoghan Ultrasonic nebulizer. The nebulizer can deliver an ultrasonic fog of uniform particles in a range of 1-8 microns. A 0.1% solution of histamine is aerosolized into the chambers causing the guinea pigs to develop dyspnea. The test drug was given orally one hour before the histamine challenge and the onset of dyspnea was recorded. Saline control animals developed dyspnea within 90-120 seconds of aerosol exposure. […] The data was expressed as the number tested over the number survived. The model was sensitive to bronchodilator and H1 antihistamine activity. Further information relating this test can be obtained from the following two publications which are hereby incorporated by reference: Dungan, K. W. and Lish, P. M. J Allergy 32:139-151 (1961). and Lish, P. M., Robbins, S. I. and Petres E. L. J. Pharmacol. Exp. Therap. 153 L 1538 (1966 ).

pulmonary resistance = test: Pulmonary Resistance in the Anesthetized Rat; format: in vivo; details: 0.5 mpk, i.v., mean of 5 animals, % decrease in pre-drug baseline resistance; for inhibition in vivo at 0.5 mg/kg: Rattus norvegicus, iv, read-out: Pulmonary Resistance in Rats, % Inhibition
Description: Rats (400-500 g) anesthetized with dialurethane were surgically prepared with tracheal and esophageal catheters. These catheters were connected to pressure transducers for recording of air flow, tracheal and esophageal pressures. These pressures formed the basis for measurement of pulmonary resistance. Inhibition of pulmonary resistance is a reflection of bronchodilation.
All compounds were tested i. v. in 5 separate animals. All data are expressed in % decrease in the pre-drug baseline resistance and each number given is the mean of the 5 animals tested.
The model is sensitive to bronchodilator activity.
Further information relating this test can be obtained from the following publications which are hereby incorporated by reference: Comroe et al, J. Appl. Physio. 4:439-44 (1959); Dungan et al J. Pharmacol. Exp. Therap. 164:290-301(1968); and Mead, J. et al. J. Appl. Physio. 5:779-796 (1953).

[2] = test system: acetic acid-induced writhing; test: Acetic Acid Writhing Test in Mice; format: in vivo, mouse; details: for ED50: Mus musculus, po, read-out: WRITH ED50
Description: The blockade of writhing induced by the intraperitoneal injection of acetic acid is an established experimental animal model for the screening of antinociceptive drugs (drugs which prevent the appreciation or transmission of pain sensations).
The procedure for the Acetic Acid Writhing Test in Mice is set forth in Hendershot et al, J. Pharmacol. Exp. Therap. 125:237, (1959); Koster et al., Fed. Proc. 18:412, (1959); and international application PCT/US91/06705, filed 20 Sep. 1991, which are hereby incorporated by reference.
The results for this test are given below in the units of mg/kg which is also abbreviated in this specification as mpk. The results for this test are given as effective doses (ED50 's).

TBZ-induced ptosis = test: Effects on tetrabenazine (TBZ)-induced ptosis in mice; format: in vivo, mouse; details: for ED50: Mus musculus, po; for TBZ ED50: p.o.
Description: Clinically active antidepressant drugs are known to block TBZ-induced ptosis in mice (See Psychosomatic Medicine, Nodine and Moyer, Eds. Lea and Febiger, Philadelphia, 1962, pp 683-90, which is hereby incorporated by reference). Activity in this test is used to predict anti-depressant activity in man.
The procedure for the TBZ-Induced Ptosis Test in Mice is set forth in Psychosomatic Medicine, Nodine and Moyer, Eds. Lea and Febiger, which is hereby incorporated by reference and in PCT/US91/06705, filed 20 Sep. 1991, which is mentioned above.
(§1) The results for this test are given below as ED50 's in the units of mg/kg.
TBZ refers to the test of effects on tetrabenazine induced ptosis in mice, p.o.;

[3] = test system: muricidal (mouse-killing) behavior; test: Effects on muricidal behavior in rats; format: in vivo, rat; details: for ED50: Rattus norvegicus, read-out: MUR ED50
Description: Blockade of muricidal (mouse-killing) behavior in rats is used as a measure of evaluating the anti-depressant activity of drugs, and the procedure for carrying out this test is set forth in Int. J. Neuro-pharmacal., 5, 405-411 (1966) are hereby incorporated by reference, and in PCT/US91/06705, filed 20 Sep. 1991, which is mentioned above.
as §1
MUR refers to the test on the effects on muricidal behavior in rats;

methamphetamine toxicity = test: Methamphetamine toxicity test in mice; format: in vivo; details: Mus musculus, read-out: METHA ED50
Description: The methamphetamine toxicity test in mice was carried out as described in Burn et al, Arch. Int. Pharmacodyn 113:290-295, (1958); and Coscia et al, Arzneim-Forsch (Drug Research) 25:1436-1442, (1975); which are hereby incorporated by reference.
(§2) The results for this test are given below as ED50's in the units of mg/kg.
METHA refers to the methamphetamine toxicity test in mice;

metrazole = test: Anti-metrazole test in mice; format: in vivo, mouse; details: for ED50: Mus musculus, read-out: MTZ ED50
Description: The anti-metrazole test in mice was carried out as described in Everett et al, J. Pharmacol. Exp. Therap. 81:402-407 (1944); which is hereby incorporated by reference.
as §2

[4] = test system: LOX human melanoma cell adhesion to human fibronectin; test: LOX melanoma cell adhesion to fibronectin; format: cell-based; details: for inhibition at 10 µM / inhibition at 50 µM / IC50: Homo sapiens, LOX; for inhibition at 10 µM: read-out: % Inhibition at 10 μM; for inhibition at 50 µM: read-out: % Inhibition at 50 μM; for IC50: read-out: LOX FN IC50
Description: (§3) Adhesion assays were run essentially as described previously (Pai et al., J. Biomed. Res. 2: 53, 1992). 96-well plates were coated with human fibronectin (140 ng/well), human vitronectin (75 ng/well), human collagen I (100 ng/well), human collagen IV (100 ng/well), human fibrinogen (1 μg/well), murine laminin (600 ng/well), or polylysine, and incubated overnight in a humidified 37° C. incubator. Excess fibronectin or other substrate was then removed and 0.2 ml of 2 mg/ml bovine serum albumin (BSA)in Dulbecco's phosphate-buffered saline (DPBS) was added to each well, incubated for 2 hours at 37° C., and removed. LOX human melanoma cells, M27 murine lung carcinoma cells or B16F10 mouse melanoma cells were detached from tissue culture flasks with RPMI medium containing 0.2M urea and 10 mM EDTA, and 0.18 ml of cells were added to each well to a final cell concentration of 1×10^5 cells/well. For inhibition studies 20 μl of 10× compound was added to the wells prior to cell addition. Cells were allowed to adhere for 1 hour at 37° C. The wells were then gently washed twice with 0.2 ml DPBS. The fluorescent dye calcein AM (Molecular Probes, Eugene Oreg.) in DPBS (0.1 ml of 1 μM) was added to each well, and the plates were incubated for 1 hour at room temperature. Adherent cells were quantitated by reading the fluorescence on a Cytofluor 2300 fluorescent plate reader (Millipore) at 485 nm excitation and 530 nm emission.
LOX FN-IC50 value for inhibition of adhesion of LOX human melanoma cells to fibronectin coated on a plastic surface.

[5] = Calcein cytotoxicity assay; format: cell-based; details: human, lox melanoma cells, calcein AM assay; for CC50 at 2 h: read-out: 2 Hr Tox LD50
Description: LOX human melanoma cells were detached from tissue culture flasks with RPMI medium containing 0.2M urea and 10 mM EDTA, and 0.18 ml of cells were added to each well to a final cell concentration of 5×10^4 cells/well. 20 μl of 10× compound was added to the wells prior to cell addition. Cells were incubated with the compound at 37° C. for 1 hour or 5 hour as indicated. Calcein AM in DPBS (0.02 ml of 5 μM) was added to each well, and the plates were incubated for an additional 1 hour at room temperature. Viable cells were quantitated by reading the fluorescence on a Cytofluor 2300 fluorescent plate reader at 485 nm excitation and 530 nm emission.

[6] = test system: LOX human melanoma cell adhesion to polylysine; test: LOX melanoma cell adhesion to polylysine; format: cell-based; details: read-out: Poly Lys IC50
Description: as §3

ELAM-1 = ELAM-1 (Homo sapiens, UniProt P16581); test: cell-based
Sequence of ELAM-1 (P16581 22-610): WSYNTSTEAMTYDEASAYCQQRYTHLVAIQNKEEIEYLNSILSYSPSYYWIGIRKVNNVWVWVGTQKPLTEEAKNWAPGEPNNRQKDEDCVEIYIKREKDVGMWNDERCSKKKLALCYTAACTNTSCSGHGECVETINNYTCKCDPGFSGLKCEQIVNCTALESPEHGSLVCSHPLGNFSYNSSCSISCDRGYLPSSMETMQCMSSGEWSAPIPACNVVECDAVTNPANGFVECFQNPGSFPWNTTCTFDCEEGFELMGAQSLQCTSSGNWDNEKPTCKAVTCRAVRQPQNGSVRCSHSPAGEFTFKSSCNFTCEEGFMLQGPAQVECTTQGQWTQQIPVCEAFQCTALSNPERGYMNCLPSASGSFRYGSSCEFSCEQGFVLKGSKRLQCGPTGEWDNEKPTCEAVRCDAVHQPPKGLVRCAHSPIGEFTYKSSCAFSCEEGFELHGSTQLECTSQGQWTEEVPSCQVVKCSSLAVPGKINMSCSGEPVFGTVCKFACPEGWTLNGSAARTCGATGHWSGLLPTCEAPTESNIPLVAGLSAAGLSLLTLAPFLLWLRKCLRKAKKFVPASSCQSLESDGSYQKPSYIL
Description: Cell adhesion to ELAM-1 was measured essentially as described previously (Pal et al., J. Biomed. Res. 2: 53, 1992). Undifferentiated HL-60 leukemia cells were prelabelled for 30 minutes with 1 μM calcein AM in DPBS without calcium or magnesium, and the cells were washed twice with the same medium before addition to 96-well plates containing monolayers of mouse L cells (5×10^4 cells/well) transfected with cDNA for the adhesion molecule ELAM-1. Adhesion was allowed to proceed for 30 minutes at room temperature before washing and quantitation of the remaining fluorescent HL-60 cells as described above.
ELAM-1 (E-selectin) is a member of the selectin class of adhesion molecules.

[7] = test system: B16-F10 murine melanoma metastasis; test: In vivo experimental metastasis; set-up: species or system mouse (C57/black6); details: 250 mpk
Description: C57/black6 female mice (6-7 weeks old) were randomized before any treatment into groups of 5 mice per treatment. Compounds of the invention were prepared as a fine suspension in 25% β-cyclodextran and administered i.p. in a volume of 0.2 ml per animal. Two hours after drug (or vehicle) injection, 0.2 ml of DPBS containing 1×10^5 B-16 F10 murine melanoma cells were injected i.v. into the tail vein. After 14 days, animals were sacrificed and lungs were removed. Metastatic lung colonies were counted by visual inspection.
*Pretreatment Time is the time between i.p. drug injection and i.v. tumor

[8] = test system: discrete trial avoidance behavior; test: Conditioned avoidance suppression in rats; format: in vivo, rat; details: for minimal effective dose: Rattus norvegicus, read-out: CAR minimum effective dose (MED)
Description: See Ann. N.Y. Acad. Sci. 66,740 (1957) which is hereby incorporated by reference. The procedure for carrying out this test is set forth in Int. J. Neuro-pharmacal., 5, 405-411 (1966) which is hereby incorporated by reference and in PCT/US91/06705, filed 20 Sep. 1991, which is mentioned above.
The results for this test are given below as minimum effecive doses (MED)in the units of mg/kg.
As used herein, CAR refers to the conditioned avoidance suppression test in rats;

[9] = Cavia porcellus, 1 h, 50 mg/kg, read-out: DYSP survivors (converted)

SMILES	DYSP survivors ([1]; 100 mg/kg)	ED50 [2]	ED50 (TBZ-induced ptosis)	ED50 [3]	ED50 (metrazole)	inhibition at 10 µM ([4]; 10 μM)	inhibition at 50 µM ([4]; 50 μM)	CC50 at 2 h [5]	IC50 [6]	minimal effective dose [8]	other results
COc1ccc(C2C3=C(c4ccccc42)C2CCC(C3)N2C)cc1OC (centres unmarked) [AA]	0/3	22.8 mg/kg	> 30 mg/kg	> 10 mg/kg	> 30 mg/kg	-30%	23.6%				Pulmonary Resistance in Rats, % Inhibition (pulmonary resistance): 6%; ED50 (methamphetamine toxicity): > 30 mg/kg
CN1C2CCC1C1C(=C(c3ccc(Cl)cc3)c3cc(F)ccc31)C2 (centres unmarked) [Compound A]	2/3							17.4 µM	11.8 µM		IC50 ([4]; 1 h): 4.8 µM; inhibition at 10 µM [4]: 81.1%; inhibition at 50 µM [4]: 101%; CC50 at 6 h ([5]; 6 hours, read-out: 6 Hr Tox LD50): 5.9 µM; IC50 (ELAM-1): 21.8 µM
O=P1(N(CCCl)CCCl)NCCCO1 (centres unmarked) [Cytoxan, reference compound]											effectiveness as positive control [7]: showed similar effectiveness; % Inhibition of lung metastasis ([7]; pretreatment time 30 min): 77.8%; Number of Lung Melanoma Colonies ([7]; pretreatment time 30 min): 17.6 ± 4.2
COc1ccc2c(c1)C(O)(c1ccccc1)C1CC3CCC(C21)N3C (centres unmarked) [DDD]		> 30 mg/kg	> 30 mg/kg	3.8 mg/kg	> 30 mg/kg					> 25 mg/kg	
COc1ccc2c(c1)C(c1ccccc1)C1=C2C2CCC(C1)N2C (centres unmarked) [EE]		> 30 mg/kg	> 30 mg/kg		> 30 mg/kg					> 25 mg/kg	
COc1ccc(C2(O)c3ccccc3C3C4CCC(CC32)N4C)cc1 (centres unmarked) [PP]		> 30 mg/kg	> 30 mg/kg	> 10 mg/kg	> 30 mg/kg	4.9%	21.9%			> 25 mg/kg	responders at 50 mg/kg [1, 9]: 0%; inhibition in vivo at 0.5 mg/kg (pulmonary resistance): 62%
CN1C2CCC1C1c3ccccc3C(O)(c3ccc(F)cc3)C1C2 (centres unmarked) [SS]		> 30 mg/kg	> 30 mg/kg	> 10 mg/kg	> 30 mg/kg	10.1%	17.3%	> 250 µM	> 250 µM		responders at 50 mg/kg [1, 9]: 33.3%; responders at 100 mg/kg ([1]; Cavia porcellus, 1 h, 100 mg/kg, read-out: DYSP survivors (converted)): 100%; inhibition in vivo at 0.5 mg/kg (pulmonary resistance): 22%; ED50 (methamphetamine toxicity): > 30 mg/kg; IC50 ([4]; Table 4, 1 hour adhesion): > 50 µM
CN1C2CCC1C1C(=C(c3ccccc3)c3ccccc31)C2 (centres unmarked) [T]	2/3	17.3 mg/kg		> 10 mg/kg	> 30 mg/kg			135 µM	115 µM	> 25 mg/kg	DYSP survivors ([1]; 50 mg/kg): 0/3; Pulmonary Resistance in Rats, % Inhibition (pulmonary resistance): 46%; TBZ ED50 (TBZ-induced ptosis): 5.7 mg/kg; % Inhibition at 10 μM ([4]; 10 μM): 2.2%; % Inhibition at 50 μM ([4]; 50 μM): 89.3%; IC50 ([4]; Table 4, 1 hour adhesion): 19.5 µM
CN1C2CCC1C1C(=C(c3ccccc3)c3ccccc31)C2 (centres unmarked) [U]											WRITH ED50 ([2]; p.o.): > 30 mg/kg; TBZ ED50 (TBZ-induced ptosis): 1.3 mg/kg; MUR ED50 [3]: 14.1 mg/kg; CAR minimum effective dose (MED) [8]: > 25 mg/kg; MTZ ED50 (metrazole): > 30 mg/kg; % Inhibition at 10 μM ([4]; 10 μM): -18.7%; % Inhibition at 50 μM ([4]; 50 μM): 21.0%

Reference: US5461057A, “Hydro-ethano-indeno-pyridines” (priority 1994, dated 1995)
